Data on two compounds can be found in patent US20220273624A1, “NOVEL ANTIVIRAL THERAPIES” (NIKLOVIR AB, priority 2019, published 2022).

In assay [1] the test system is Ljungan-like virus. As to the kind of experiment: Immunohistochemistry for LV VP1 antigen in pancreas tissue of treated DP-BB rats (Example 1). The class given is in vivo, rat. To be noted: for Non-infected (number of animals, viral antigen in pancreas by IHC) / Infected (number of animals, viral antigen in pancreas by IHC): Pleconaril 100 mg/kg, Efavirenz 30 mg/kg daily from 45 to 60 days of age; for Non-infected (number of animals, viral antigen in pancreas by IHC): control 0 of 9 non-infected; for Infected (number of animals, viral antigen in pancreas by IHC): control 9 of 9 infected; for effect on clearing the infection (in words): pancreas tissue following treatment. Here is the method:
DP-BB rats were obtained from the breeding colony maintained at the Karolinska Institute (Solna, Sweden). The animals were housed under Specific Pathogen Free conditions in a temperature- and humidity-controlled room with 12 hour light dark cycles. They were fed R36 diet and water ad libitum. Animals of both genders were used. The overall incidence of diabetes among the DP rats used in the colony study is 100% with 60 days as the mean age of onset.
Antiviral agents (pleconaril and efavirenz) were administered to the animals in a dose of 100 mg/kg and 30 mg/kg body weight for Pleconaril and Efavirenz, respectively. Treatment was given daily using formulation containing the vehicle 0.4% (v/v) Tween 80+2% (v/v) glycerol+15% (w/v) Hydroxypropyl-beta-cyclodextrin.
Four experimental treatment groups consisted of six rats given pleconaril, six given Efavirenz, eight given a combination of both compounds, and nine given the vehicle solution and serving as a control. All four groups began treatment at 45 days of age and treatment was maintained until 60 days of age when animals were sacrificed.
Formalin fixed paraffin embedded pancreas tissue were analyzed by immunohistochemistry. The tissues were fixed in 4% formalin and embedded in paraffin as described previously with minor modifications (Shi et al., 1991), (Shi, 1997). Presence of LV specific antigen was visualized using a polyclonal recombinant LV VP1 raised in rabbits (Tolf, 2008). As control we used serum from a rabbit immunized using the same protocol but with the carrier GST protein only. Tissues from LV-infected and non-infected animals were included as controls. The specificity of the rabbit antibodies were verified by analyzing control specimens generated by mixing infected tissue culture cells with non-infected cells followed by formalin fixation and paraffin imbedding. The specificity of the reaction was also confirmed by blocking the signal with LV antigen in parallel with control antigen.
Pancreas tissue was also analysed using the PCR assay described by Donoso Mantke and co-workers (Donoso Mantke et al., 2007).

The subject of assay [2] is DP BB rats. To be noted: group B, Pleconaril alone 100 mg/kg BW once daily for 30 days, previously reported (Niklasson et al., 2016), control 59 (7), cited from earlier work.

Read-outs that look alike come from different tables or passages of the source.

Consider `O=C1Nc2ccc(Cl)cc2[C@@](C#CC2CC2)(C(F)(F)F)O1` [Efavirenz, (4S)-6-chloro-4-(2-cyclopropylethynyl)-4-(trifluoromethyl)-1H-3,1-benz-oxazin-2-one], for which, in assay [1], the “Non-infected (number of animals, viral antigen in pancreas by IHC)” value was determined as 0; the “Infected (number of animals, viral antigen in pancreas by IHC)” value worked out at 6; the “effect on clearing the infection (in words)” value is on record as “essentially no effect”.
Consider `Cc1cc(CCCOc2c(C)cc(-c3noc(C(F)(F)F)n3)cc2C)on1` [Pleconaril, 3-[3,5-dimethyl-4-[3-(3-methylisoxazol-5-yl)propoxy]phenyl]-5-(trifluoro-methyl)-1,2,4-oxadiazole], for which, in assay [1], the “Non-infected (number of animals, viral antigen in pancreas by IHC)” value is 2; the “Infected (number of animals, viral antigen in pancreas by IHC)” value amounted to 4; the “effect on clearing the infection (in words)” value is “only a modest effect on clearing the infection”. Moreover, the “Mean diab onset day (SD)” value in assay [2] (listed as Plec) is recorded as 62 (8) day. Further, the “Mean diab onset day (SD)” value in assay [2] is 62 (SD 8) day.
